Source: patent US20190352276A1, “INHIBITORS OF BRUTON'S TYROSINE KINASE” (Joint Stock Company "Biocad", priority 2016, published 2019)

Assays:
[1] = Stability in human blood plasma; details: 10 μM in pooled human blood plasma, incubated 4 hours at 37° C.
[2] = Chemical stability in artificial gastric fluid (SGF without enzymes); details: 10 μM in SGF without enzymes, pH=1.4, 37° C.
[3] = test system: Mino (mantle cell lymphoma); assay: Antiproliferative activity, Mino cells (Alamar Blue); format: cell-based; details: Homo sapiens, Table 10, 72 h, average of several tests
Method: (§1) Antiproliferative activity of BTK inhibitors was measured in cell-based bioassay on B-cells cultures: Mino (mantle cell lymphoma, ATCC® CRL-3000™), Z-138 (mantle cell lymphoma, ATCC® CRL-3001™) and DOHH2 (follicular lymphoma, Creative Bioarray CSC-C0219) using cell viability reagent Alamar Blue (Invitrogen, #DAL 1100). Cells were cultured in 10% FB S-supplemented (HyClone, #SH3008803/Gibco, #16140-071) RPMI-1640 (PanEco, #S330p) for at least 1 passage after thawing, washed with PBS and passaged in 96-well culture plates (Corning, #3599) with growth medium with 10% FBS (HyClone, #SH3008803/Gibco, #16140-071) and antibiotic (50 μg/ml of gentamicin (Biolot, #1.3.16))≈3*10^4 cells in 50 μl of medium per well.
(§2) The compounds were dissolved in DMSO and diluted with the assay medium to final concentrations ranging from […]. 150 μl of each diluted compound were then added to each well (final concentration of DMSO was less than 1%) and incubated at 37° C. in an incubator under 5% of CO2 for 72 h. After incubation, 20 μl of Alamar Blue reagent (Invitrogen, #DAL1100) were added to each well. The plates were shaked on an orbital shaker (Biosan, Latvia) and then incubated for 14-16 hours at 37° C. in the incubator.
(§3) The number of living cells were estimated, measuring the fluorescence signal at the excitation wavelength (REx) of 540 nm and the emission wavelength (λEm) of 590 nm on a microplate reader (Tecan Infinite M200Pro, Switzerland).
(§4) For each compound, IC50 was calculated using Magellan 7.2 software (Tecan, Switzerland) approximating experimental points by four-parameter logistic model with the optimization by Levenberg-Marquardt.

[4] = test system: Z-138 (mantle cell lymphoma); assay: Antiproliferative activity, Z-138 cells (Alamar Blue); format: cell-based; details: Homo sapiens, Table 10, 72 h, average of several tests
Method: as §1, §2, §3, §4

[5] = General cytotoxicity on HepG2 cells (CC50; therapeutic index CC50 HepG2/IC50 Mino); format: cell-based; details: human, HepG2 cells (hepatocellular carcinoma); Table 10; 72 hours, Alamar Blue; average of several tests
Method: (§5) The CC50 values were determined in the test for General cytotoxicity on HepG2 cells (hepatocellular carcinoma, ATCC® HB-8065™). 2*10^4 cells (in 50 μl) per well were seeded in 96-well plates (Corning, #3599) in DMEM medium (PanEco, #S420p), after 24 h of incubation 150 μl of candidate compounds were added to each well in the range of final concentrations from 200 μM to 4 μM and the plate was incubated in a total volume of 200 μl for 72 hours. Viability of the cells was assessed using Alamar Blue dye (Invitrogen, #DAL 1100). CC50 was determined similarly (table 10).
(§6) The relationship between toxic (CC50) and a therapeutic (IC50) effects of the dose is the therapeutic index, which can be expressed as the ratio between CC50 (HepG2) (general cytotoxicity of the candidate) and IC50 (Mino) (antiproliferative activity on the target cells): […]

[6] = test system: HepG2 cells (hepatocellular carcinoma); assay: as above; format: cell-based; details: Table 10; therapeutic index
Method: as §5, §6

Amount of substance in the sample, % (stability in human blood plasma) [1] [%]	Amount of substance in the sample in % (chemical stability) [2] [%]	IC50 [3] [µM]	IC50 [4] [µM]	SMILES	CC50 at 72 h [5] [µM]	CC50 (HepG2)/IC50 (Mino) [6]
95.5	100	–	–	C=CC(=O)N1CCC[C@@H](n2nc(-c3ccc(C(=O)Nc4ccc(F)cn4)cc3)c3c(N)ncc(Cl)c32)C1 [BCD-BTK -237, 4-{4-amino-7-chloro-1-[(3R)-1-(prop-2-enoyl)piperidin-3-yl]-1H-pyrazolo[4,3-c]pyridin-3-yl}-N-(5-fluoropyridin-2-yl)benzamide]	–	–
87.3	100	–	–	C=CC(=O)N1CCC[C@@H](n2nc(-c3ccc(C(=O)Nc4cc(C(F)(F)CCC)ccn4)cc3)c3cncc(F)c32)C1 [BCD-BTK -247, (R)-4-(1-(1-acryloylpiperidin-3-yl)-7-fluoro-1H-pyrazolo[4,3-c]pyridin-3-yl)-N-(4-(1,1-difluorobutyl)pyridin-2-yl)benzamide]	–	–
89.2	–	–	–	C=CC(=O)N1CCC[C@@H](n2nc(-c3ccc(C(=O)Nc4cc(C(F)(F)F)ccn4)cc3)c3c(N)ncc(Cl)c32)C1 [BCD-BTK -251, (R)-4-(1-(1-acryloylpiperidin-3-yl)-4-amino-7-chloro-1H-pyrazolo[4,3-c]pyridin-3-yl)-N-(4-(trifluoromethyl)pyridin-2-yl)benzamide]	–	–
85.2	–	–	–	C=CC(=O)N1CCC[C@@H](n2nc(-c3ccc(C(=O)Nc4cc(C(F)(F)CCC)ccn4)cc3)c3cncc(Cl)c32)C1 [BCD-BTK -252, (R)-4-(1-(1-acryloylpiperidin-3-yl)-7-chloro-1H-pyrazolo[4,3-c]pyridin-3-yl)-N-(4-(1,1-difluorobutyl)pyridin-2-yl)benzamide]	–	–
93.0	–	–	–	C=CC(=O)N1CCC[C@@H](n2nc(-c3ccc(C(=O)Nc4cc(C(F)(F)CCC)ccn4)cc3)c3c(N)ncc(Cl)c32)C1 [BCD-BTK -254, (R)-4-(1-(1-acryloylpiperidin-3-yl)-4-amino-7-chloro-1H-pyrazolo[4,3-c]pyridin-3-yl)-N-(4-(1,1-difluorobutyl)pyridin-2-yl)benzamide]	–	–
93.3	–	–	–	C=CC(=O)N1CCC[C@@H](n2nc(-c3cnc(C(=O)Nc4cc(C(F)(F)CCC)ccn4)nc3)c3cncc(Cl)c32)C1 [BCD-BTK -292, (R)-5-(1-(1-acryloylpiperidin-3-yl)-7-chloro-1H-pyrazolo[4,3-c]pyridin-3-yl)-N-(4-(1,1-difluorobutyl)pyridin-2-yl)pyrimidine-2-carboxamide]	–	–
85.7	–	–	–	C=CC(=O)N1CCC[C@@H](n2nc(-c3cnc(C(=O)Nc4cc(C(F)(F)CC)ccn4)nc3)c3cncc(Cl)c32)C1 [BCD-BTK -293, (R)-5-(1-(1-acryloylpiperidin-3-yl)-7-chloro-1H-pyrazolo[4,3-c]pyridin-3-yl)-N-(4-(1,1-difluoropropyl)pyridin-2-yl)pyrimidine-2-carboxamide]	–	–
100.0	–	–	–	CC#CC(=O)N1CCC[C@@H](n2nc(-c3ccc(C(=O)Nc4ccccn4)cc3)c3c(N)ncc(Cl)c32)C1 [BCD-BTK -295, (R)-4-(4-amino-1-(1-(but-2-ynoyl)piperidin-3-yl)-7-chloro-1H-pyrazolo[4,3-c]pyridin-3-yl)-N-(pyridin-2-yl)benzamide]	–	–

Continued, molecule first:

SMILES	Amount of substance in the sample, % (stability in human blood plasma) [1] [%]	Amount of substance in the sample in % (chemical stability) [2] [%]	IC50 [3] [µM]	IC50 [4] [µM]	CC50 at 72 h [5] [µM]	CC50 (HepG2)/IC50 (Mino) [6]
C=CC(=O)N1CCC[C@@H](n2nc(-c3cnc(-n4ccc(=O)c(C#N)c4)nc3)c3cncc(Cl)c32)C1 [BCD-BTK-206, (R)-1-(5-(1-(1-acryloylpiperidin-3-yl)-7-chloro-1H-pyrazolo[4,3-c]pyridin-3-yl)pyrimidin-2-yl)-4-oxo-1,4-dihydropyridine-3-carbonitrile]	87.6	–	–	–	–	–
C=CC(=O)N1CCC[C@@H](n2nc(-c3cnc(-n4ccc(=O)c(C(N)=O)c4)nc3)c3cncc(Cl)c32)C1 [BCD-BTK-207, (R)-1-(5-(1-(1-acryloylpiperidin-3-yl)-7-chloro-1H-pyrazolo[4,3-c]pyridin-3-yl)pyrimidin-2-yl)-4-oxo-1,4-dihydropyridine-3-carboxamide]	82.6	–	–	–	–	–
C=CC(=O)N1CCC[C@@H](n2nc(-c3ccc(-n4ccc(=O)c(C#N)c4)cc3)c3cncc(Cl)c32)C1 [BCD-BTK-208, (R)-1-(4-(1-(1-acryloylpiperidin-3-yl)-7-chloro-1H-pyrazolo[4,3-c]pyridin-3-yl)phenyl)-4-oxo-1,4-dihydropyridine-3-carbonitrile]	91.4	–	21.5	32.2	112	5.21
C=CC(=O)N1CCC[C@@H](n2nc(-c3ccc(C(=O)Nc4ccc(F)cn4)cc3)c3cncc(Cl)c32)C1 [BCD-BTK-212, (R)-4-(1-(1-acryloylpiperidin-3-yl)-7-chloro-1H-pyrazolo[4,3-c]pyridin-3-yl)-N-(5-fluoropyridin-2-yl)benzamide]	90.8	–	3.5	14.8	28.1	8.01
C=CC(=O)N1CCC[C@H]1Cn1nc(-c2ccc(Oc3ccncc3)cc2)c2cncc(Cl)c21 [BCD-BTK-263, (S)-1-(2-((7-chloro-3-(4-(pyridin-4-yloxy)phenyl)-1H-pyrazolo[4,3-c]pyridin-1-yl)methyl)pyrrolidin-1-yl)prop-2-en-1-one]	86.7	100	20.6	35.2	> 50	>2.42
CC#CC(=O)N1CC[C@@H](n2nc(-c3ccc(Oc4ccncc4)cc3)c3cncc(Cl)c32)C1 [BCD-BTK-265, (R)-1-(3-(7-chloro-3-(4-(pyridin-4-yloxy)phenyl)-1H-pyrazolo[4,3-c]pyridin-1-yl)pyrrolidin-1-yl)but-2-yn-1-one]	81.7	94.8	7.91	16.6	16.5	2.09
CC#CC(=O)N1CC(Cn2nc(-c3ccc(C(=O)Nc4ccccn4)cc3)c3cncc(Cl)c32)C1 [BCD-BTK-267, 4-(1-((1-(but-2-ynoyl)azetidin-3-yl)methyl)-7-chloro-1H-pyrazolo[4,3-c]pyridin-3-yl)-N-(pyridin-2-yl)benzamide]	100.0	100	–	–	–	–
CC#CC(=O)N1CCC[C@@H]1Cn1nc(-c2ccc(C(=O)Nc3ccccn3)cc2)c2cncc(Cl)c21 [BCD-BTK-269, (R)-4-(1-((1-(but-2-ynoyl)pyrrolidin-2-yl)methyl)-7-chloro-1H-pyrazolo[4,3-c]pyridin-3-yl)-N-(pyridin-2-yl)benzamide]	95.4	100	–	–	–	–
CC#CC(=O)N1CCC[C@@H](Cn2nc(-c3ccc(C(=O)Nc4ccccn4)cc3)c3cncc(Cl)c32)C1 [BCD-BTK-278, (R)-4-(1-((1-(but-2-ynoyl)piperidin-3-yl)methyl)-7-chloro-1H-pyrazolo[4,3-c]pyridin-3-yl)-N-(pyridin-2-yl)benzamide]	96.2	100	–	–	–	–
CC#CC(=O)N1CCC[C@H](Cn2nc(-c3ccc(C(=O)Nc4ccccn4)cc3)c3cncc(Cl)c32)C1 [BCD-BTK-283, (S)-4-(1-((1-(but-2-ynoyl)piperidin-3-yl)methyl)-7-chloro-1H-pyrazolo[4,3-c]pyridin-3-yl)-N-(pyridin-2-yl)benzamide]	97.4	100	–	–	–	–
